The results in this text go back to patent US20250121076A1, “POLYPEPTIDE DRUG CONJUGATE HAVING NOVEL STRUCTURE AND APPLICATION THEREOF” (MEDSHINE DISCOVERY INC., priority 2021, published 2025).

Where a name gives a salt, the structure may show the parent alone. Read-outs that look alike come from different tables or passages of the source. Starred links: 1 amine or outer side, 2 acyl side, 3 side chain; linkers in the order of their positions; H or OH if unused. Positions of bridges follow the written chain, without caps; N, C: chain ends. Non-standard residues stand in square brackets, D forms with d. Residues, ends and D or L forms follow the SMILES beside them. Chains are numbered I, II in the order given. *: point of attachment. TATA = O=C(CC[*:1])N1CN(C(=O)CC[*:2])CN(C(=O)CC[*:3])C1; Dolaproine = CO[C@@H]([C@@H]1CCCN1)[C@@H](C)C(=O)O; Dil = CC[C@H](C)[C@H](NC)[C@@H](CC(=O)O)OC; X2 = O=C(CCCC(=O)[*:2])NCCC(=O)[*:1]; PABC = O=C(OCc1ccc(N[*:1])cc1)[*:2]; X1 = C[C@@H](N*)[C@@H](O)c1ccccc1; Hyp = O=C(O)[C@@H]1C[C@@H](O)CN1; hArg = N=C(N)NCCCC[C@H](N)C(=O)O; Cit = NC(=O)NCCC[C@H](N)C(=O)O; Pen = CC(C)(S)[C@H](N)C(=O)O; NMeV = CN[C@H](C(=O)O)C(C)C; hCys = N[C@@H](CCS)C(=O)O; Sar = CNCC(=O)O

One series has as its target T1, Human EphA2 (Homo sapiens, UniProt P29317).
T1 construct: purchased Sino Biological 13926-H08HD
Nature of the series: Binding capacity test to EphA2 protein (SPR, Biacore 8K). The method, then: To detect the affinity of the compound to be tested to the target protein EphA2 using the SPR method.
• Biacore 8K (GE Healthcare). • 96-well Plate (Cat #650101, greiner bio-one) • CM5 chip (Cat #BR-1005-30, GE Healthcare) • Amine Coupling Kit (Cat #BR-1000-50, GE Healthcare) EDC NHS 1 M ethanolamine. • 10 mM sodium acetate pH 4.5 (Cat #BR-1003-50, GE Healthcare) • DMSO (Cat #D4540, Sigma) • P20 (Cat #BR-1000-54, GE Healthcare). • PBS (Cat #BR-1006-72, GE Healthcare). • EphA2 (Cat #13926-H08HD, Sino Biological)
In this experiment, the amino coupling method was used. The target protein EphA2 was directly immobilized on the CM5 chip using Biacore 8K. The compound to be tested as an analyte was then diluted to a required concentration gradient with a buffer (10 mM PBS, pH 7.4, 137 mM NaCl, 2.7 mM KCl, 5% DMSO, and 0.05% P20) for multi-cycle kinetic detection, in which each cycle is formed by 180 seconds of sample injection and 180 seconds of dissociation, and then the next cycle was performed, to obtain kinetic analysis data on the affinity of the target protein EphA2 to the compound to be tested. The final data were subjected to Kinetics fitting analysis based on a 1:1 model using Biacore Insight Evaluation Software (V 2.0.15.12933).
1) Preparation of the buffer: 10 mM PBS, pH 7.4, 137 mM NaCl, 2.7 mM KCl, 5% DMSO, and 0.05% P20.
2) Activation of the CM5 chip: The CM5 chip was activated with 400 mM EDC and 100 mM NHS at a flow rate of 10 μL/min for 420 seconds.
3) Coupling of the target protein: The target protein was diluted to 10 μg/mL with 10 mM sodium acetate (pH 4.5) and coupled at a flow rate of 10 μL/min for 284 s. The 1 #, 2 #, and 3 #channels on the chip were used in the experiment, and the coupling results were 1639.9RU, 1747.8RU, and 1702.2RU, respectively.
4) Blocking of the CM5 chip: The CM5 chip was blocked with 1 M ethanolamine at a flow rate of 10 μL/min for 420 seconds.
5) Analyte concentration: The compound to be tested was diluted with the buffer. The compound to be tested was diluted from 100 nM to 0.78 nM in a 2-fold gradient.
6) Sample injection analysis: Each concentration of the working solution of the compound to be tested corresponded to one cycle, with a flow rate of 30 μL/min for binding for 180 seconds and dissociating for 180 seconds. The last cycle was a 5% DMSO solvent correction cycle. 7) All results were subjected to kinetics fitting analysis based on a 1:1 model.
The experimental data of five effective concentrations of the compounds of the present invention were selected for Kinetics fitting analysis based on a 1:1 model using Biacore Insight Evaluation Software (V 2.0.15.12933).

The nature of series [1]: Pharmacokinetic analysis in rat plasma at different doses (6.2). In kind it is in vivo, SD rats. The method, then: (§1) Experimental purpose: To test the pharmacokinetics of the compounds of the present invention in SD rats.
(§2) 6.2 The pharmacokinetic characteristics of the compound after intravenous injection and oral administration were tested in rats according to a standard protocol. The compound to be tested was formulated into a clear solution using 50 mM acetate buffer (pH=5) in 10% sucrose as a vehicle. Three male SD rats were given a single intravenous injection of 2.5 mg/kg, 3.75 mg/kg, or 5 mg/kg of the compound to be tested. Whole blood was collected at time points of 0.083, 0.25, 0.5, 1, 4, and 24 hours after administration to get plasma. The concentration of the compound to be tested and the concentration of its potential metabolite MMAE were analyzed by the LC-MS/MS method, and the pharmacokinetic parameters were calculated.

Series [2] can be described thus: Pharmacokinetic analysis in rat plasma (6.1, 2 mg/kg). In kind it is in vivo, SD rats. As to conditions: MMAE as potential metabolite in plasma after single IV 2 mg/kg acetate salt of PDC_8, SD rats. The method, then:
as §1
as §2, with “6.1” for “6.2”, “Two” for “Three male”, “2” for “2.5 mg/kg, 3.75 mg/kg, or 5”, “1, 2,” for “1,”, “4, 8,” for “4,”, “calculated by Phoenix WinNonlin software.” for “calculated.”

Series [3] in a line: Pharmacokinetic analysis in Cynomolgus macaque plasma. In kind it is in vivo, Cynomolgus macaques. Particulars: MMAE as potential metabolite in plasma after single IV 1 mg/kg acetate salt of PDC_8, Cynomolgus macaques. How it is done:
To test the pharmacokinetics of the compounds of the present invention in Cynomolgus macaques.
(§3) The pharmacokinetic characteristics of the compound after intravenous injection and oral administration were tested in Cynomolgus macaques according to a standard protocol. The compound of the present invention was formulated into a clear solution using 50 mM acetate buffer (pH=5) in 10% sucrose as a vehicle. Two Cynomolgus macaques were given a single intravenous injection of 1 mg/kg of the compound to be tested. Whole blood was collected at time points of 0.083, 0.25, 0.5, 1, 2, 4, 8, and 24 hours after administration to get plasma. The concentration of the compound to be tested and the concentration of its potential metabolite MMAE were analyzed by the LC-MS/MS method, and the pharmacokinetic parameters were calculated by Phoenix WinNonlin software.

The nature of series [4]: In vivo pharmacokinetic analysis in mice. More on the design: species or system CD-1 mice. As to conditions: MMAE as potential metabolite in plasma after single IV 2 mg/kg acetate salt of PDC_8, CD-1 mice. The method, then:
To test the pharmacokinetics of the compounds of the present invention in CD-1 mice
as §3, with “in CD-1 mice” for “in Cynomolgus macaques”, “Two mice” for “Two Cynomolgus macaques”, “of 2” for “of 1”, “pharmacokinetic parameters, such as maximal concentration (Cmax), clearance (Cl), half-life (T1/2), […] (Vdss), and area under the concentration-time curve (AUC0-last),” for “pharmacokinetic parameters”

The mark [5] stands for this setting: MMAE as potential metabolite after single IV 2.5 mg/kg acetate salt of PDC_8, male SD rats.
Setting [6] is: MMAE as potential metabolite after single IV 3.75 mg/kg acetate salt of PDC_8, male SD rats.
The mark [7] stands for this setting: MMAE as potential metabolite after single IV 5 mg/kg acetate salt of PDC_8, male SD rats.

As usually defined, the Kd is the constant that tells how readily two partners part at equilibrium. What is called Cmax is the maximum level reached in the sampled fluid or tissue.

T1 sequence (P29317 24-534 limits assumed): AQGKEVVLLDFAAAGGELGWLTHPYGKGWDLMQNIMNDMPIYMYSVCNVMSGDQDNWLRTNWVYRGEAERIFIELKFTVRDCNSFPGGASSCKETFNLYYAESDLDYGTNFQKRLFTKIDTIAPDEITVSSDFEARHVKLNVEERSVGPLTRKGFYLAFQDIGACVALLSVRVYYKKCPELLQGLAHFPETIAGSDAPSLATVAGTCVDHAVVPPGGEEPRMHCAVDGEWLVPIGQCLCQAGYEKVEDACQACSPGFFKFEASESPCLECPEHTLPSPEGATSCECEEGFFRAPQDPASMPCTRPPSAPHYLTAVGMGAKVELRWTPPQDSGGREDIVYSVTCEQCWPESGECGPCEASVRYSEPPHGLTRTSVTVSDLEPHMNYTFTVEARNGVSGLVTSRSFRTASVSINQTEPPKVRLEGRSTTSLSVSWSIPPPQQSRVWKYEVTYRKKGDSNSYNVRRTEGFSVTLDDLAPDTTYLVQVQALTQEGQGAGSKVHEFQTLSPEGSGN

On to `CC[C@H](C)[C@@H]([C@@H](CC(=O)N1CCC[C@H]1[C@H](OC)[C@@H](C)C(=O)N[C@H](C)[C@@H](O)c1ccccc1)OC)N(C)C(=O)[C@@H](NC(=O)[C@H](C(C)C)N(C)C(=O)OCc1ccc(NC(=O)[C@H](CCCNC(N)=O)NC(=O)[C@@H](NC(=O)CCCC(=O)NCCC(=O)N(C)CC(=O)N(C)CC(=O)N(C)CC(=O)N(C)CC(=O)N(C)CC(=O)N(C)CC(=O)N(C)CC(=O)N(C)CC(=O)N(C)CC(=O)N(C)CC(=O)N[C@@H](C)C(=O)N[C@@H](CCCCNC(=N)N)C(=O)N[C@@H](CC(=O)O)C(=O)N[C@H]2CCSCCC(=O)N3CN4CN(C3)C(=O)CCSC[C@H](NC(=O)[C@H](CC(C)C)NC(=O)[C@@H]3CCCN3C(=O)[C@H](CC(N)=O)NC(=O)[C@H](C(C)C)NC(=O)[C@H](CC(C)C)NC(=O)[C@@H]3C[C@@H](O)CN3C2=O)C(=O)N[C@@H](CC(C)C)C(=O)N[C@@H](Cc2c[nH]cn2)C(=O)N2CCC[C@H]2C(=O)N[C@H](CC(=O)O)C(=O)N[C@@H](Cc2c[nH]c3ccccc23)C(=O)N[C@@H](CCCCNC(=N)N)C(=O)N[C@H](C(N)=O)CSCCC4=O)C(C)C)cc1)C(C)C` [Acetate salt of PDC_2, MMAE-PABC-Cit-Val-Glutaryl-β-Ala-Sar10-Ala-hArg-Asp-hCys-Hyp-Leu-Val-Asn-Pro-Leu-Cys-Leu-His-Pro-dAsp-Trp-hArg-Cys-NH2, TATA] (I: [Sar][Sar][Sar][Sar][Sar][Sar][Sar][Sar][Sar][Sar]A[hArg]D[hCys][Hyp]LVNPLCLHP[dD]W[hArg]C-NH2 / II: V[Cit][PABC][NMeV]V[Dil][Dolaproine]-X1; linker I:14-I:21-I:28 via TATA; linker I:N-II:N via X2), for which the equilibrium dissociation constant (Kd) on Human EphA2 (read-out: Human EphA2 SPR kD, SPR, kinetics fit 1:1 model) stood at 0.033 µM.
`CC[C@H](C)[C@@H]([C@@H](CC(=O)N1CCC[C@H]1[C@H](OC)[C@@H](C)C(=O)N[C@H](C)[C@@H](O)c1ccccc1)OC)N(C)C(=O)[C@@H](NC(=O)[C@H](C(C)C)N(C)C(=O)OCc1ccc(NC(=O)[C@H](CCCNC(N)=O)NC(=O)[C@@H](NC(=O)CCCC(=O)NCCC(=O)N(C)CC(=O)N(C)CC(=O)N(C)CC(=O)N(C)CC(=O)N(C)CC(=O)N(C)CC(=O)N(C)CC(=O)N(C)CC(=O)N(C)CC(=O)N(C)CC(=O)N[C@H]2CCCCNC(=O)C[C@@H](C(=O)N[C@@H]3C(=O)N4C[C@H](O)C[C@H]4C(=O)N[C@@H](CC(C)C)C(=O)N[C@@H](C(C)C)C(=O)N[C@@H](CC(N)=O)C(=O)N4CCC[C@H]4C(=O)N[C@@H](CC(C)C)C(=O)N[C@H]4CSCCC(=O)N5CN(CN(C5)C(=O)CCSC3(C)C)C(=O)CCSC[C@@H](C(N)=O)NC(=O)[C@H](CCCCNC(=N)N)NC(=O)[C@H](Cc3c[nH]c5ccccc35)NC(=O)[C@@H](CC(=O)O)NC(=O)[C@@H]3CCCN3C(=O)[C@H](Cc3c[nH]cn3)NC(=O)[C@H](CC(C)C)NC4=O)NC(=O)[C@H](CCCCNC(=N)N)NC2=O)C(C)C)cc1)C(C)C` [Acetate salt of PDC_7] (I: [Sar][Sar][Sar][Sar][Sar][Sar][Sar][Sar][Sar][Sar]K[hArg]D[Pen][Hyp]LVNPLCLHP[dD]W[hArg]C-NH2 / II: V[Cit][PABC][NMeV]V[Dil][Dolaproine]-X1; lactam I:11-I:13; linker I:14-I:21-I:28 via TATA; linker I:N-II:N via X2) returned a Kd on Human EphA2 of 0.00839 µM.
Consider `CC[C@H](C)[C@@H]([C@@H](CC(=O)N1CCC[C@H]1[C@H](OC)[C@@H](C)C(=O)N[C@H](C)[C@@H](O)c1ccccc1)OC)N(C)C(=O)[C@@H](NC(=O)[C@@H](NC)C(C)C)C(C)C` [MMAE, monomethyl auristatin E] (H-[NMeV]V[Dil][Dolaproine]-X1), for which the “AUC0-last” value in series [1] (setting [5]) turned out to be 0.058 µM·h; in series [1] (setting [6]), 0.185 µM·h; in series [1] (setting [7]), 0.435 µM·h; in series [2] it was 0.0374 µM·h; in series [3], 0.0288 µM·h; in series [4], 0.0515 µM·h. Further, the Cmax in series [1] (setting [5]) stood at 29 nM; in series [1] (setting [6]), 39 nM; in series [1] (setting [7]), 52 nM; in series [2], 23.5 nM; in series [3], 5.6 nM; in series [4] it was 55 nM.
